Data published in ChEMBL document CHEMBL4138244, “Structure-based identification of a NEDD8-activating enzyme inhibitor via drug repurposing” (Eur J Med Chem, 2018).
The source made the active and inactive calls. The rule behind the calls is not given here.

How the values were obtained:
[1] = target: T1, NEDD8 activating enzyme (Homo sapiens) (UniProt Q8TBC4+Q13564); test: Inhibition of NAE in human Caco2 cells assessed as increase in p53 protein levels at 1 to 10 uM after 16 hrs by Western blot analysis; type: cell-based
[2] = target: T1, NEDD8 activating enzyme (Homo sapiens); test: Inhibition of NAE-mediated Ubcl2-NEDD8 conjugation in human Caco2 cells at 10 uM after 16 hrs by Western blot analysis; type: cell-based
[3] = target: T1, NEDD8 activating enzyme (Homo sapiens); test: (§1) Inhibition of NAE-mediated Ubcl2-NEDD8 conjugation in human Caco2 cells after 16 hrs by Western blot analysis; type: cell-based
NEDD8 activating enzyme = target: T2, NEDD8 activating enzyme (Homo sapiens, UniProt Q8TBC4); test: as §1; type: cell-based
T2 sequence (Q8TBC4 whole entry): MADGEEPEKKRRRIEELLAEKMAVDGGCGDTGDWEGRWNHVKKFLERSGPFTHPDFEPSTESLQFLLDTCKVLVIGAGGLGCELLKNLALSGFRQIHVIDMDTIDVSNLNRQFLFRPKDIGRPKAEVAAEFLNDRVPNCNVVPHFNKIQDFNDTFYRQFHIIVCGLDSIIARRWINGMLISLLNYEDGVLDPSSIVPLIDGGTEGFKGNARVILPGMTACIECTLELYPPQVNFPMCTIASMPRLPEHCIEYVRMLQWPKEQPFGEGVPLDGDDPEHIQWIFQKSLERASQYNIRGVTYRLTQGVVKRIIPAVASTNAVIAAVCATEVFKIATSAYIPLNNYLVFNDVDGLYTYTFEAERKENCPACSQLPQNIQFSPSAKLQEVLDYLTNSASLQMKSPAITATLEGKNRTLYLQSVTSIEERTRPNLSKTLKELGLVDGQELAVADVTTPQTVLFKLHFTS
T2 sequence (Q13564 whole entry): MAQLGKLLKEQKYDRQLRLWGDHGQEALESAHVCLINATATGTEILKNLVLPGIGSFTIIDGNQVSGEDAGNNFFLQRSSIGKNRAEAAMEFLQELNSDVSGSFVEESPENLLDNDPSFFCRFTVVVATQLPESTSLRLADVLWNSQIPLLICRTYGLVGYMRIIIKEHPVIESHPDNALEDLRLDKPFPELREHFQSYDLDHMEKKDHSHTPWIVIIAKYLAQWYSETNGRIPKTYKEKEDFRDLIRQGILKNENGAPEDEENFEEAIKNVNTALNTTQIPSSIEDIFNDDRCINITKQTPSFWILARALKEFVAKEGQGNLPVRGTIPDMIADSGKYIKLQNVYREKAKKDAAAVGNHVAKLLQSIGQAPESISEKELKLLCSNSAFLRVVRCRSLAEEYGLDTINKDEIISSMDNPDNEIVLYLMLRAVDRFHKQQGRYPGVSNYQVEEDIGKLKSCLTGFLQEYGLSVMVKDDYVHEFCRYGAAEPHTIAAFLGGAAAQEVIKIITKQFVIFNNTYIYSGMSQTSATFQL

[4] = target: T1, NEDD8 activating enzyme (Homo sapiens); test: Inhibition of NAE (unknown origin) assessed as decrease in NAE-mediated Ubc12-NEDD8 conjugation levels preincubated for 10 mins followed by ATP and Mg2+ addition measured after 60 mins by Western blot analysis; type: protein-complex assay
[5] = target: T3, SUMO-activating enzyme (Homo sapiens) (UniProt Q9UBE0+Q9UBT2); test: Inhibition of SAE (unknown origin) assessed as decrease in SAE-mediated Ubc9-SUMO conjugation levels up to 10 uM preincubated for 10 mins followed by ATP and Mg2+ addition measured after 60 mins by Western blot analysis; type: protein-complex assay
[6] = target: T4, Ubiquitin-like modifier-activating enzyme 1 (Homo sapiens) (UniProt P22314); test: Inhibition of UAE1 (unknown origin) assessed as decrease in UAE1-mediated Ubc10-ubiquitin conjugation levels up to 10 uM preincubated for 10 mins followed by ATP and Mg2+ addition measured after 60 mins by Western blot analysis
T4 sequence (whole entry): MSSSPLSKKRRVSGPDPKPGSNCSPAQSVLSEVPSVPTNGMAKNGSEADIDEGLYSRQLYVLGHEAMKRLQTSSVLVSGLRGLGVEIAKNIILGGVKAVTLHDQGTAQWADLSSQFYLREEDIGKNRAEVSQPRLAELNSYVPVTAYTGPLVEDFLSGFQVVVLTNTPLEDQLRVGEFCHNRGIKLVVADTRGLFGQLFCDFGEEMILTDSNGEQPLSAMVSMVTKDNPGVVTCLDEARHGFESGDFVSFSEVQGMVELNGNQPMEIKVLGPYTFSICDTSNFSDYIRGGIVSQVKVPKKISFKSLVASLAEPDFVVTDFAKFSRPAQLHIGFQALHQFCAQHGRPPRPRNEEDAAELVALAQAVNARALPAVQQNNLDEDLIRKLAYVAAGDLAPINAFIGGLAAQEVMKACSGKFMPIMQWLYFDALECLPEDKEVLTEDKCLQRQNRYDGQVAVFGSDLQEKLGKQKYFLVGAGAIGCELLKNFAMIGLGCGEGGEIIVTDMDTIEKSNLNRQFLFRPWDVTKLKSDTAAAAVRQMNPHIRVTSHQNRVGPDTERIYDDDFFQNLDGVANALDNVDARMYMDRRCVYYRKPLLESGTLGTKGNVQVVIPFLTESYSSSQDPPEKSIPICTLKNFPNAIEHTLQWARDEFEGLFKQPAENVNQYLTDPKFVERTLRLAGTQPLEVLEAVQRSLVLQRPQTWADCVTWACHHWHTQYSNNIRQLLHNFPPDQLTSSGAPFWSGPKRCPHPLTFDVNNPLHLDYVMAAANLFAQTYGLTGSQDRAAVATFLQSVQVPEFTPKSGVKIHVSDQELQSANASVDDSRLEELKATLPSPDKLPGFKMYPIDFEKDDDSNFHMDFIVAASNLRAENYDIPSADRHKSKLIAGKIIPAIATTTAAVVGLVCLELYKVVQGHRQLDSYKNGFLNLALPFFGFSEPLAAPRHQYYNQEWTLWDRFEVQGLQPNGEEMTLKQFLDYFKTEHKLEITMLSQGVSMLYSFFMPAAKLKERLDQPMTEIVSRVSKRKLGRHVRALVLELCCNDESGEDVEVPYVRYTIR

[7] = target: T1, NEDD8 activating enzyme (Homo sapiens); test: Competitive inhibition of NAE (unknown origin) assessed as decrease in NAE-mediated Ubc12-NEDD8 conjugation levels at 10 uM preincubated for 10 mins followed by Mg2+ and various concentrations of ATP addition measured after 60 mins by Lineweaver-Burk plot analysis; type: protein-complex assay
[8] = target: T1, NEDD8 activating enzyme (Homo sapiens); test: Inhibition of NAE (unknown origin) assessed as decrease in NAE-mediated Ubc12-NEDD8 conjugation levels at 10 uM treated for 10 mins post ATP and Mg2+ addition measured after 60 mins by Western blot analysis; type: protein-complex assay
[9] = target: T1, NEDD8 activating enzyme (Homo sapiens); test: Inhibition of NAE in human Caco2 cells assessed as increase in p53 protein levels at 0.1 to 10 uM after 16 hrs by Western blot analysis; type: cell-based
Caco-2 [10] = test: Upregulation of p53 protein levels in NAE knockdown human Caco2 cells at 10 uM after 16 hrs by Western blot analysis; type: functional, cell-based
[11] = target: T1, NEDD8 activating enzyme (Homo sapiens); test: Inhibition of NAE in human Caco2 cells assessed as increase in p53 protein levels by measuring p53 degradation at 10 uM preincubated for 16 hrs followed by cycloheximide addition measured up to 60 mins by Western blot analysis relative to control; type: cell-based; design: scale not given: the % may be the effect or the level left
[12] = target: T1, NEDD8 activating enzyme (Homo sapiens); test: Inhibition of NAE in human Caco2 cells harboring p53-luc plasmid assessed as increase in p53 transcriptional activity after 16 hrs by luciferase reporter gene assay; type: cell-based
[13] = target: T1, NEDD8 activating enzyme (Homo sapiens); test: Inhibition of NAE in human Caco2 cells assessed as increase in beta-catenin protein levels after 16 hrs by Western blot analysis; type: cell-based
[14] = target: T1, NEDD8 activating enzyme (Homo sapiens); test: Inhibition of NAE in human Caco2 cells assessed as increase in c-myc protein levels after 16 hrs by Western blot analysis; type: cell-based
[15] = target: T1, NEDD8 activating enzyme (Homo sapiens); test: Inhibition of NAE in human Caco2 cells assessed as increase in p27 protein levels at 0.1 to 10 uM after 16 hrs by Western blot analysis; type: cell-based
[16] = target: T1, NEDD8 activating enzyme (Homo sapiens); test: Inhibition of NAE in human Caco2 cells assessed as decrease in cyclin D1 protein levels at 0.1 to 10 uM after 16 hrs by Western blot analysis; type: cell-based
[17] = target: T1, NEDD8 activating enzyme (Homo sapiens); test: Inhibition of NAE in human Caco2 cells assessed as decrease in Bcl2 protein levels at 0.1 to 10 uM after 16 hrs by Western blot analysis; type: cell-based
[18] = target: T1, NEDD8 activating enzyme (Homo sapiens); test: Inhibition of NAE in human Caco2 cells assessed as increase in phosphorylated NF-kappaB protein levels at 0.1 to 10 uM after 16 hrs by Western blot analysis; type: cell-based
Caco-2 [19] = test: Induction of apoptosis in human Caco2 cells assessed as viable cells at 1 uM after 16 hrs by Annexin V-FITC/propidium iodide staining-based flow cytometric analysis (reference value: 98.4%); type: functional; details: Caco-2, 16 h, read-out: Activity
Caco-2 [20] = test: Induction of apoptosis in human Caco2 cells assessed as early apoptotic cells at 1 uM after 16 hrs by Annexin V-FITC/propidium iodide staining-based flow cytometric analysis (reference value: 1.40%); type: functional
Caco-2 [21] = test: Induction of apoptosis in human Caco2 cells assessed as late apoptotic cells at 1 uM after 16 hrs by Annexin V-FITC/propidium iodide staining-based flow cytometric analysis (reference value: 0.072%); type: functional
Caco-2 [22] = test: Induction of apoptosis in human Caco2 cells assessed as necrotic cells at 1 uM after 16 hrs by Annexin V-FITC/propidium iodide staining-based flow cytometric analysis (reference value: 0.12%); type: functional
Caco-2 [23] = test: Induction of apoptosis in human Caco2 cells assessed as viable cells at 5 uM after 16 hrs by Annexin V-FITC/propidium iodide staining-based flow cytometric analysis (reference value: 98.4%); type: functional; details: Caco-2, 16 h, read-out: Activity
Caco-2 [24] = test: Induction of apoptosis in human Caco2 cells assessed as early apoptotic cells at 5 uM after 16 hrs by Annexin V-FITC/propidium iodide staining-based flow cytometric analysis (reference value: 1.40%); type: functional
Caco-2 [25] = test: Induction of apoptosis in human Caco2 cells assessed as late apoptotic cells at 5 uM after 16 hrs by Annexin V-FITC/propidium iodide staining-based flow cytometric analysis (reference value: 0.072%); type: functional
Caco-2 [26] = test: Induction of apoptosis in human Caco2 cells assessed as necrotic cells at 5 uM after 16 hrs by Annexin V-FITC/propidium iodide staining-based flow cytometric analysis (reference value: 0.12%); type: functional
Caco-2 [27] = test: Induction of apoptosis in human Caco2 cells assessed as viable cells at 10 uM after 16 hrs by Annexin V-FITC/propidium iodide staining-based flow cytometric analysis (reference value: 98.4%); type: functional; details: Caco-2, 16 h, read-out: Activity
Caco-2 [28] = test: Induction of apoptosis in human Caco2 cells assessed as early apoptotic cells at 10 uM after 16 hrs by Annexin V-FITC/propidium iodide staining-based flow cytometric analysis (reference value: 1.40%); type: functional
Caco-2 [29] = test: Induction of apoptosis in human Caco2 cells assessed as late apoptotic cells at 10 uM after 16 hrs by Annexin V-FITC/propidium iodide staining-based flow cytometric analysis (reference value: 0.072%); type: functional
Caco-2 [30] = test: Induction of apoptosis in human Caco2 cells assessed as necrotic cells at 10 uM after 16 hrs by Annexin V-FITC/propidium iodide staining-based flow cytometric analysis (reference value: 0.12%); type: functional
Caco-2 [31] = test: Cytotoxicity against human Caco2 cells after 72 hrs by MTT assay; type: functional, cell-based; details: Caco-2, 72 h
Caco-2 [32] = test: Cytotoxicity against NAE-knockdown human Caco2 cells after 72 hrs by MTT assay; type: cell-based; details: Caco-2, 72 h
[33] = target: T3, SUMO-activating enzyme (Homo sapiens); test: Inhibition of SAE-mediated Ubc9-SUMO conjugation in human Caco2 cells up to 10 uM preincubated for 10 mins followed by ATP and Mg2+ addition measured after 60 mins by Western blot analysis; type: cell-based
[34] = target: T4, Ubiquitin-like modifier-activating enzyme 1 (Homo sapiens); test: Inhibition of UAE1-mediated Ubc10-ubiquitin conjugation in human Caco2 cells up to 10 uM preincubated for 10 mins followed by ATP and Mg2+ addition measured after 60 mins by Western blot analysis; type: cell-based

Compound: COc1cc([C@@H]2c3cc4c(cc3[C@H](O)[C@H]3COC(=O)[C@H]23)OCO4)cc(OC)c1OC
- inhibition [1]: Active

Compound: O=C1c2c(O)ccc(O)c2C(=O)c2c(NCCNCCO)ccc(NCCNCCO)c21 [MITOXANTRONE]
- inhibition [2]: Active
- inhibition [3]: Dose-dependent effect
- EC50 (NEDD8 activating enzyme): 1.3 µM
- inhibition [4]: Dose-dependent effect
- inhibition [5]: inactive
- inhibition [6]: inactive
- inhibition [7]: Active
- inhibition [8]: inactive
- inhibition [9]: Active
- Activity (Caco-2 [10]): Active
- inhibition [1]: Active
- Activity [11]: 15%
- inhibition [12]: Dose-dependent effect
- inhibition [13]: Dose-dependent effect
- inhibition [14]: Dose-dependent effect
- inhibition [15]: Active
- inhibition [16]: Active
- inhibition [17]: Active
- inhibition [18]: Active
- viability at 1 µM (Caco-2 [19]): 36%
- Activity (Caco-2 [20]): 42%
- Activity (Caco-2 [21]): 19.4%
- Activity (Caco-2 [22]): 2.49%
- viability at 5 µM (Caco-2 [23]): 15.4%
- Activity (Caco-2 [24]): 27.8%
- Activity (Caco-2 [25]): 50.7%
- Activity (Caco-2 [26]): 6.07%
- viability at 10 µM (Caco-2 [27]): 3.34%
- Activity (Caco-2 [28]): 0.91%
- Activity (Caco-2 [29]): 22.1%
- Activity (Caco-2 [30]): 73.6%
- IC50 (Caco-2 [31]): 1.4 µM
- IC50 (Caco-2 [32]): > 10 µM
- inhibition [33]: inactive
- inhibition [34]: inactive

Compound: NS(=O)(=O)OC[C@@H]1C[C@@H](n2ccc3c(N[C@H]4CCc5ccccc54)ncnc32)C[C@@H]1O [PEVONEDISTAT]
- inhibition [3]: Dose-dependent effect
- inhibition [7]: Active
- viability at 10 µM (Caco-2 [27]): 46.6%
- Activity (Caco-2 [28]): 32.8%
- Activity (Caco-2 [29]): 14.3%
- Activity (Caco-2 [30]): 6.27%
- IC50 (Caco-2 [31]): 4.4 µM
